Series [1] has as its target T1, WsaF (Geobacillus stearothermophilus, UniProt Q7BG50, E333A).
T1 construct: recombinant WsaF from pET28a-WsaF in E. coli BL21(DE3) Star; residues M1 to L413 mentioned
The experiment in a line: isothermal titration calorimetry. The class given is binding. The conditions noted are these: 20 mM NaP pH 8.5, 50 mM NaCl, 20 °C; one-site model.

In series [2] the target is T2, WsaF (Geobacillus stearothermophilus, UniProt Q7BG50).
T2 construct: recombinant WsaF from pET28a-WsaF in E. coli BL21(DE3) Star; residues M1 to L413 mentioned
T2 sequence (Q7BG50 1-413): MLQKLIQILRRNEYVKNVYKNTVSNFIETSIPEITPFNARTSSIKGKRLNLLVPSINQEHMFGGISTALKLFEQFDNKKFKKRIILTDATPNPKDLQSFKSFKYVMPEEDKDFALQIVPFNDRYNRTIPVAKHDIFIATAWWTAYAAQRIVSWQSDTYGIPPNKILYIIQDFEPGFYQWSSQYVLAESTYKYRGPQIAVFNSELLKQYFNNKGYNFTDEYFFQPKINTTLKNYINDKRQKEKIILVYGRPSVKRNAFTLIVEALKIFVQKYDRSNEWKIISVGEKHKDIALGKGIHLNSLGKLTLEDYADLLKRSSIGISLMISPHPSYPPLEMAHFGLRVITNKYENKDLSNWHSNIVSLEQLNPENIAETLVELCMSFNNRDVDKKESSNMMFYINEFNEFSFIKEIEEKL
The series is described as follows: isothermal titration calorimetry. The class given is binding. As to conditions: 20 mM NaP pH 8.5, 50 mM NaCl, 20 °C; one-site model. Background: Isothermal titration calorimetry measures the heat released or taken up as one component is titrated into another.

For series [3], the target named is T3, WsaF (Geobacillus stearothermophilus, UniProt Q7BG50, K78A/K79A/K81A).
T3 construct: recombinant WsaF from pET28a-WsaF in E. coli BL21(DE3) Star; residues M1 to L413 mentioned
The experiment in a line: X-ray crystal structure of soaked complex, […] Å. The class given is binding. As to conditions: crystal soaked 5 min in 25 mM dTDP; surface entropy reduction mutant WsaFSER2 (b48 prints K78A/E79A/K81A).

Series [4] addresses T4, WsaF (Geobacillus stearothermophilus, UniProt Q7BG50, R254A).
T4 construct: recombinant WsaF from pET28a-WsaF in E. coli BL21(DE3) Star; residues M1 to L413 mentioned
The series is described as follows: isothermal titration calorimetry. The class given is binding. The conditions noted are these: 20 mM NaP pH 8.5, 50 mM NaCl, 20 °C; one-site model.

Series [5] addresses T3, WsaF. The experiment in a line: X-ray crystal structure of soaked complex, […] Å. The class given is binding. As to conditions: crystal soaked 5 min in 20 mM dTDP-β-L-Rha; WsaFSER2 (b48 prints K78A/E79A/K81A); authors regard rhamnose ring position as incorrect.
Series [6] concerns the molecule itself. The experiment in a line: crystal structure; SeMet-labelled WsaF, space group P2_(1), two molecules in the asymmetric unit, 2.28 Å.

T3 sequence (Q7BG50 entry or part of it K78A/K79A/K81A): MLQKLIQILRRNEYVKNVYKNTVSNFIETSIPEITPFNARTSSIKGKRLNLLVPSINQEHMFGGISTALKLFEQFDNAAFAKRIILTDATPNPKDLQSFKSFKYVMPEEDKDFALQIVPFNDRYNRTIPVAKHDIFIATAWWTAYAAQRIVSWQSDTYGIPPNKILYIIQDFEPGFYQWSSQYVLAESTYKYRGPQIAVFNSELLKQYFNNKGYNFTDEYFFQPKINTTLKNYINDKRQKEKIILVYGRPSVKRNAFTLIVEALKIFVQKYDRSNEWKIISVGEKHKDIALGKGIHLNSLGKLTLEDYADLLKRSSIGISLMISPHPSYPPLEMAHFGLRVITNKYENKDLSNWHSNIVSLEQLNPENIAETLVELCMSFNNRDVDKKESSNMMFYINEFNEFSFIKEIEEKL
T4 sequence (Q7BG50 entry or part of it R254A): as the sequence (Q7BG50 entry or part of it K78A/K79A/K81A) above, with A78K, A79K, A81K, R254A counted along it
T1 sequence (Q7BG50 entry or part of it E333A): as the sequence (Q7BG50 entry or part of it K78A/K79A/K81A) above, with A78K, A79K, A81K, E333A counted along it

Regarding `Cc1cn([C@H]2C[C@H](O)[C@@H](COP(=O)(O)OP(=O)(O)O)O2)c(=O)[nH]c1=O` [dTDP], the isothermal titration calorimetry result in series [1] was “The mutant E333A showed a reduced binding affinity for dTDP”; in series [2], “showed weaker dTDP binding than native WsaF, when qualitatively comparing the curves (Fig. S3)”; in series [4], “(ITC) of E333A and R254A showed weaker dTDP binding than native WsaF”. The “X-ray crystal structure of soaked complex, 2.81 Å” value in series [3] is “The structures of the dTDP-WsaFSER2 and dTDP-β-L-Rha-WsaFSER2 complexes were obtained by soaking”.
With `Cc1cn([C@H]2C[C@H](O)[C@@H](COP(=O)(O)OP(=O)(O)O[C@H]3O[C@@H](C)[C@H](O)[C@@H](O)[C@H]3O)O2)c(=O)[nH]c1=O` [dTDP-β-L-rhamnose], in series [5], the “X-ray crystal structure of soaked complex, 2.55 Å” value is “The structures of the dTDP-WsaFSER2 and dTDP-β-L-Rha-WsaFSER2 complexes were obtained by soaking”.

B1: SeMet-labelled WsaF from Geobacillus stearothermophilus NRS 2004/3a (enzyme)
chain: T2 sequence (Q7BG50 1-413)
modifications: selenomethionine (SeMet)-labelled
notes: WsaF, beta-1,2-rhamnosyltransferase of Geobacillus stearothermophilus NRS 2004/3a; the structure is described from M1 to L413 (M1-N25, Q58-G63 and N382-E389 with poor or no density); also called SeMet variant WsaF; SeMet-WsaF; source: E. coli BL21(DE3) Star, purified to homogeneity
One may read the stoichiometry N as the number of molecules, sites or subunits per partner or assembly. Consider B1, for which the “stoichiometry N” value in series [6] is 2.

For the origin of these results see article PMC3898925 (Journal of Molecular Biology, 2010).
